From patent US11697850B2, “Polymorphism in the Apo(a) gene predict responsiveness to acetylsalicylic acid treatment” (Celera Corporation, priority 2007, dated 2023)

Assay: Women's Health Study (WHS): randomized trial of low dose aspirin vs placebo, incident cardiovascular events stratified by rs3798220 genotype or Lp(a) level
Assay type: in vivo, human
Conditions: for relative risk reduction of major vascular events with aspirin: aspirin 100 mg orally on alternate days vs placebo, 10-year follow-up
Description: The genotype of this polymorphism was therefore determined among 26,274 initially healthy women from the Women's Health Study (WHS) who had been randomly allocated to low dose aspirin or placebo and then followed over a 10-year period for incident cardiovascular events (31). This setting afforded the opportunity for prospective assessment not only of rs3798220 association with Lp(a) levels and vascular risk, but also of an interaction between aspirin and genetic effects on risk. Although most of the study participants were Caucasian, there were sufficient numbers of non-Caucasian participants to address population-specific influences on associations between rs3798220 and Lp(a) levels, as have been found in previous comparisons of other apolipoprotein(a) variants among populations with different biogeographic ancestry (32-36).
Study Populations: The primary study population derived from the Women's Health Study (WHS), a randomized trial of aspirin (100 mg orally on alternate days) and placebo in the primary prevention of cardiovascular disease conducted among initially healthy women aged at least 45 at enrollment who were followed over a 10 year period (1, 2). At enrollment, participants provided baseline clinical and demographic information. 28,345 WHS participants provided blood for plasma and genetic analysis. Among these samples, baseline Lp(a) levels were measured with a turbidimetric assay that is not affected by the number of Kr IV type-2 repeats on the Hitachi 917 analyzer (Roche Diagnostics, Indianapolis, Ind.) (3). Baseline measurement of other lipid fractions, inflammation biomarkers, and other plasma components has been described previously (4). Total incident cardiovascular events adjudicated during the follow-up period included those typically associated with plaque rupture and vessel occlusion such as myocardial infarction (MI), ischemic stroke, and cardiovascular death, as well as those typically associated with progression of underlying atherosclerotic disease defined as revascularization by percutaneous transluminal coronary angioplasty (PTCA) or coronary artery bypass graft (CABG). Major incident cardiovascular events were defined as myocardial infarction, ischemic stroke, or cardiovascular death. In addition, the association between rs3798220 and plasma Lp(a) levels was evaluated in an independent group of 1058 Caucasian men who had participated in the Physicians Health Study (PHS) (5). Among these PHS participants, Lp(a) levels were determined with a standard clinical ELISA-based method (6).
Genotyping: Genotypes for rs3798220 in the WHS participants were determined by an oligonucleotide ligation procedure that combined PCR amplification of target sequences from 3 ng of genomic DNA with subsequent allele-specific oligonucleotide ligation (7). The ligation products of the two alleles were then separated by hybridization to product specific oligonucleotides, each coupled to spectrally distinct Luminex®100™ xMAP microspheres (Luminex, Austin, Tex.). The captured products were fluorescently labeled with streptavidin R-phycoerythrin (Prozyme, San Leandro, Calif.), sorted on the basis of microsphere spectrum, and detected by a Luminex®100™ instrument (8). Genotypes at rs3798220 in the PHS were determined with a fluorescence-based, allele specific, real-time DNA amplification method as described (ABI, Foster City) (9). For the WHS and PHS populations respectively, the fractions of samples with successful genotype determination were 96.3% and 97.8%. Of the 27,289 women with DNA samples for genotyping, full ascertainment for rs3798220 genotype, Lp(a) levels, age, and occurrence of incident cardiovascular events were available for 25,436. Of these, 24,320 were Caucasian, 468 were African-American, 282 were Asian American, 262 where Hispanic, 62 were Native American, and 42 had unknown ancestry.
Statistical methods: Deviations from Hardy-Weinberg equilibrium were evaluated using a log-likelihood ratio test. […]

SMILES: CC(=O)Oc1ccccc1C(=O)O [aspirin, acetylsalicylic acid]
- relative risk reduction of major vascular events with aspirin (Caucasian WHS women, non-carriers of rs3798220 minor allele (TT)): 9%
- relative risk reduction of coronary revascularization with aspirin (Caucasian WHS women, rs3798220 heterozygotes, aspirin 100 mg on alternate days vs placebo): 36%
- relative risk reduction of major vascular events with aspirin (Caucasian WHS women, rs3798220 heterozygotes): 59%
- effect of aspirin on relative risk of vascular events (Caucasian non-carriers of rs3798220 minor allele with Lp(a) above the 90th percentile (65.1 mg/dL)): reduced the relative risk of vascular events
- effect of aspirin on relative risk of vascular events (Caucasian non-carriers of rs3798220 minor allele with Lp(a) below the 90th percentile): minimal effect
- relative risk reduction for the revascularization endpoint with aspirin (Caucasians with Lp(a) levels above the 90th percentile (65.1 mg/dL), aspirin vs placebo): 39%
